The test concerns the target T1, ANO1 (anoctamin 1, TMEM16A) (Homo sapiens, UniProt Q5XXA6).
T1 construct: human ANO1(abc)
T1 sequence (Q5XXA6 1-986): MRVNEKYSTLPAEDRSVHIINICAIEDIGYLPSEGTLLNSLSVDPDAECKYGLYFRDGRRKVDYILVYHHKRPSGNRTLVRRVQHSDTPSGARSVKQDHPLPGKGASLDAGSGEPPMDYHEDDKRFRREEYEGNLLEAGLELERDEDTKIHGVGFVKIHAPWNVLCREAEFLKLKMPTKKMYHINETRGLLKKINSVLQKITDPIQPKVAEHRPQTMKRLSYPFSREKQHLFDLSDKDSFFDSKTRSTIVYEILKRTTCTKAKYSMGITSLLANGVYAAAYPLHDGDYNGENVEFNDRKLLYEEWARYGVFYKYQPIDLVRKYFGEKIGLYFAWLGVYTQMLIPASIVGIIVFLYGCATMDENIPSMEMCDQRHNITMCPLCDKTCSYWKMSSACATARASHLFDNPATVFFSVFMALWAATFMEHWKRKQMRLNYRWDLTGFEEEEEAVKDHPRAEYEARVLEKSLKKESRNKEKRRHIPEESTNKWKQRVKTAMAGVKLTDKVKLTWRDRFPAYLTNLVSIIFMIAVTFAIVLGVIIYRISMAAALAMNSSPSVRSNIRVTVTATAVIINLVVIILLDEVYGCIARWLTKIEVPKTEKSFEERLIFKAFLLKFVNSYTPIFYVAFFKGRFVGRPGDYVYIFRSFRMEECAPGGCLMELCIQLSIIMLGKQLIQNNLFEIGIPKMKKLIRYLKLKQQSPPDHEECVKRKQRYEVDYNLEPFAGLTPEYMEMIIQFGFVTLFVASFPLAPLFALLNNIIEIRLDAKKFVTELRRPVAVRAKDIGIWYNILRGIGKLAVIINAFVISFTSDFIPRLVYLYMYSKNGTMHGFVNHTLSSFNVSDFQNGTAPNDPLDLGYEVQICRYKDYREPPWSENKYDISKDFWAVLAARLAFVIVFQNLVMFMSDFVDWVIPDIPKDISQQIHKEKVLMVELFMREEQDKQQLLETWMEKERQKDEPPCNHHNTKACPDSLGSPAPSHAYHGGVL
The test can be described thus: apical membrane current (Ussing chamber) in FRT-ANO1 cells; whole-cell patch clamp; YFP iodide influx. The test is classed as cell-based. In general terms: In patch-clamp work, channel activity is measured electrically.

Broadly, the IC50 is the concentration at which inhibition is half-maximal. A higher IC50 goes with weaker potency in that assay.

Compound `COC1=C(OC)C(=O)C(CCCCCCCCCCO)=C(C)C1=O` [idebenone, 2,3-dimethoxy-5-methyl-6-(10-hydroxydecyl)-21,4-benzoquinone] had an IC50 of 9.2 µM. That is a single-digit micromolar value.

The values are drawn from paper PMC4511415, “Inhibition of ANO1/TMEM16A Chloride Channel by Idebenone and Its Cytotoxicity to Cancer Cell Lines” (PLoS ONE, 2015).
